From ChEMBL document CHEMBL1201862, “PubChem BioAssay data set” (2004) come the findings set out here.

What all share (experiment): growth of human tumour cells (NCI), 48 h
In experiment [1] the test system is OVCAR-4.
The test system of experiment [2] is IGROV-1.
Experiment [3] concerns U-251.
Experiment [4] relates to MOLT-4.
Experiment [5] deals with A549.
For experiment [6], the system named is SNB-75.
Experiment [7] has as its system LOX IMVI.
For experiment [8], the system named is K562.
Experiment [9] deals with SNB-19.
The test system of experiment [10] is HOP-62.
Experiment [11] concerns HL-60.
Experiment [12] relates to OVCAR-3.
Experiment [13] relates to HT-29.
Experiment [14] concerns SW-620.
In experiment [15] the test system is SK-OV-3.
In experiment [16] the test system is HCC 2998.
Experiment [17] concerns SK-MEL-28.
In experiment [18] the test system is NCI-H522.

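Method: 48-hour compound exposure of cells in 96-well plates, five concentrations, linear interpolation of endpoints. The concentration for 50% growth inhibition is given as GI50.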 Calls of active or inactive are those of the source. Rule as the data show it: active = GI50 up to about 1.1 µM and inactive = higher.

As to `COC(=O)/C(C)=C/[N+](=O)[O-]`, the GI50 in [1] is 17.5 µM (inactive); in [2], 20.9 µM (inactive); in experiment [3] it was 18.5 µM (inactive); in experiment [4], 11 µM (inactive); in experiment [5], 21.7 µM (inactive); in experiment [6] it was 16.3 µM (inactive). In addition, the GI50 in [7] was 18.7 µM (inactive); in experiment [8], 3.4 µM (inactive); in experiment [9], 17.1 µM (inactive); in [10], 25.4 µM (inactive); in experiment [11] it was 14.1 µM (inactive); in experiment [12], 16 µM (inactive). For the same molecule, the GI50 in experiment [13] is 20.6 µM (inactive); in experiment [14], 5.38 µM (inactive); in experiment [15], 19.2 µM (inactive); in [16], 17.3 µM (inactive).

Take `COc1cc(Br)c(CC2NCCc3cc(OC)c(OC)cc32)cc1OC` (stereo unspecified): the GI50 in experiment [1] was > 100 µM (inactive); in experiment [3] it was 84.3 µM (inactive); in experiment [4], 46.6 µM (inactive); in [17], 70.5 µM (inactive); in experiment [5], 81.1 µM (inactive); in experiment [6], 70.3 µM (inactive). Besides, the GI50 is 32.8 µM (inactive) in experiment [8]; > 100 µM (inactive) in [9]; > 100 µM (inactive) in experiment [10]; 28.4 µM (inactive) in experiment [11]; 84.9 µM (inactive) in [12]; 34 µM (inactive) in experiment [13]. Moreover, the GI50 in [14] was > 100 µM (inactive); in [18], > 100 µM (inactive); in [15], > 100 µM (inactive); in experiment [16], 34.9 µM (inactive).

On to `O=c1c2ccccc2nc(-c2cccc(Cl)c2)n1NC1OC(CO)C(O)C(O)C1O` (stereo unspecified), for which the GI50 in experiment [1], in [2], in [3], in [4], in [17] and in experiment [5] was > 100 µM (inactive) each time. For the same molecule, the GI50 in [6], in experiment [8], in experiment [9], in [10], in experiment [11] and in experiment [12] was > 100 µM (inactive) each time. For the same molecule, the GI50 in experiment [13], in [14], in experiment [18], in experiment [15] and in [16] was > 100 µM (inactive) each time.

Take `Cc1ccc2c(c1)CN1c3ccc(C)cc3CN2C1c1ccccc1O`: the GI50 in experiment [1] was 57 µM (inactive); in [2], 79.4 µM (inactive); in [3], 38.5 µM (inactive); in experiment [4], 35.2 µM (inactive); in [17], 37.5 µM (inactive); in [5], > 100 µM (inactive). Further, the GI50 in [6] is 0.667 µM (active); in experiment [7], 58.5 µM (inactive); in experiment [8] it was 34.7 µM (inactive); in [10], 85.9 µM (inactive); in experiment [11], 14.8 µM (inactive); in [12], 21.5 µM (inactive). Besides, the GI50 was 42 µM (inactive) in experiment [13], 61.9 µM (inactive) in experiment [14], 65.6 µM (inactive) in experiment [18] and > 100 µM (inactive) in [15].

For `Nc1nc(N)c(-c2ccccc2)c(C(=O)Nc2ccc(Cl)c(Cl)c2)n1`, the GI50 in experiment [1], in [2], in experiment [3], in experiment [4], in experiment [17] and in experiment [5] was > 100 µM (inactive) throughout. For the same molecule, the GI50 in experiment [6], in experiment [7], in experiment [8], in experiment [9], in experiment [10] and in experiment [11] was > 100 µM (inactive) each time. Besides, the GI50 in experiment [12], in [13], in experiment [14] and in experiment [16] was > 100 µM (inactive) throughout.
